From patent US20160115540A1, “PRODRUGS AND DRUGS” (Biogen MA Inc., priority 2013, published 2016)
Structures can show the parent of a compound that is named as a salt.

Tested on: jejunum
Assay: Transcriptional profiling on Affymetrix GeneChips, single dose, naïve mice: jejunum
Format: in vivo, C57BL/6 mice
Details: for Number of differentially expressed genes identified: Jenjunum: Naïve, Single Dose
Protocol: Treated mice were sacrificed at 2, 7, or 12 hours. Tissues (liver, spleen, kidney, jejunum, cortex, hippocampus, striatum and whole blood) were collected and analyzed by transcriptional profiling on mouse Affymetrix GeneChips.
Tissues (liver, spleen, kidney, jejunum, cortex, hippocampus, striatum and whole blood) were collected and analyzed by transcriptional profiling on mouse Affymetrix GeneChips.
Animals were exposed to CO2 and whole blood collected via cardiac puncture. Two 100 μl aliquots of whole blood were collected in 1.5 mL microcentrifuge tubes and snap frozen in liquid nitrogen. Peripheral (liver, spleen, kidney and jejunum) and CNS brain (cerebellum, hippocampus, striatum and cortex) tissues were harvested and snap frozen in liquid nitrogen, with special care taken to collect tissues of similar size and from the same location. All samples were stored at −80° C. until RNA extraction was conducted.
For RNA preparation, frozen tissues were placed in 2 mL RNAse-free 96-well blocks with 1.5 mL QIAzol Lysis Reagent (QIAgen) and a 3.2 mm stainless steel bead (BioSpec Products, Bartlesville, Okla.). Tissues were disrupted for four cycles of 45 seconds in a Mini-Beadbeater (Biospec Products). RNA was extracted in chloroform and the aqueous phase was mixed with an equal volume of 70% ethanol. Extracted RNA was applied to RNeasy 96 plates and purified by the spin method according to the manufacturer's protocol (RNeasy 96 Universal Tissue Protocol, QIAgen, Hilden Germany).
Automated sample amplifications and biotin labelings were carried out using the NuGEN Ovation RNA Amplification system V2 (Cat #3100), Ovation WB reagent (Cat #1300) and Encore Biotin module (Cat #4200) (NuGEN Technologies, Inc, San Carlos, Calif.) according to manufacturer's recommendations using an Arrayplex automated liquid handler (Beckman Coulter, Indianapolis, Ind.). Two micrograms of biotin labeled sscDNA probe were hybridized to Affymetrix GeneChip Affymetrix HT_MG-430_PM plate arrays with modified conditions as described in Allaire et al. Washing and staining of the hybridized arrays were completed as described in the GeneChip Expression analysis technical manual for HT plate arrays using the Genechip® Array Station (Affymetrix, Santa Clara, Calif.) with modifications as described in Allaire et al. The processed GeneChip® plate arrays were scanned using GeneTitan scanner (Affymetrix, Santa Clara, Calif.).
Affymetrix scans were subject to quality control (QC) measures. These tests included a visual inspection of the distribution of raw signal intensities and an assessment of RNA degradation, relative log expression (RLE), and normalized unsealed standard error (NUSE). All sample scans that passed these QC metrics were included in the analysis.
All CEL files were subjected to GC-content-based Robust Multi-array Average (GCRMA) normalization (version 2.20.0) (Irizarry R A, et al. Nucleic Acids Res 2003; 31:e15; Li C, et al. Genome Biol 2001; 2:[…]0032). Expression levels were log (base 2) transformed.
All calculations and analyses were carried out using R (version 2.11.1) and Bioconductor computational tools (Gentleman R. Springer Science+Business Media 2005).

## COC(=O)/C=C/C(=O)OC [DMF, dimethyl fumarate]
Jejunum, 12 hr
  Pir (1429001_PM_at) differential expression: 3.79
  Setd4 (1435405_PM_at) differential expression: 1.66
  Slc5a4b (1422757_PM_at) differential expression: 2.21
  Ugt2b5 (1419622_PM_at) differential expression: 4.92
  Ugt2b36 (1455595_PM_at) differential expression: 2.94
100 mpk DMF-vs-100 mpk MMF, 2 h after last dosing
  Number of differentially expressed genes identified: Jenjunum: 1
100 mpk DMF-vs-100 mpk MMF, 7 h after last dosing
  Number of differentially expressed genes identified: Jenjunum: 2
100 mpk DMF-vs-100 mpk MMF, 12 h after last dosing
  Number of differentially expressed genes identified: Jenjunum: 0
100 mpk, vs Vehicle, 2 h after last dosing
  Number of differentially expressed genes identified: Jenjunum: 62
100 mpk, vs Vehicle, 7 h after last dosing
  Number of differentially expressed genes identified: Jenjunum: 44
100 mpk, vs Vehicle, 12 h after last dosing
  Number of differentially expressed genes identified: Jenjunum: 37
jejunum, 100DMF-vs-Veh, 2 h
  FC 9130221J17Rik (1443159_PM_at): 2.30
  FC Acss2 (1446542_PM_at): 1.68
  FC Akr1b8 (1448894_PM_at): 7.35
  FC Akr1c13 (1418672_PM_at): 1.62
  FC Akr1c19 (1455454_PM_at): 2.45
  FC Areg (1421134_PM_at): 3.58
  FC Cbr1 (1460196_PM_at): 1.55
  FC Cbr3 (1427912_PM_at): 54.72
  FC Ces1e (1419510_PM_at): 1.85
  FC Ces1f (1424266_PM_s_at): 2.48
  FC Ces1g (1449486_PM_at): 4.06
  FC Dnase2a (1430135_PM_at): 1.77
  FC Dppa5a (1416552_PM_at): 3.07
  FC Dusp4 1428834_PM_at: 1.51
  FC Entpd5 (1433763_PM_at): 1.53
  FC Ereg (1419431_PM_at): 2.50
  FC Ero1l (1419030_PM_at): 1.92
  FC Ero1l (1449324_PM_at): 1.50
  FC Esd (1441604_PM_at): 1.71
  FC Fam13a (1456611_PM_at): 1.54
  FC Gclc (1424296_PM_at): 4.25
  FC Gclc (1455959_PM_s_at): 3.13
  FC Gsr (1421816_PM_at): 2.23
  FC Gss (1441931_PM_x_at): 1.95
  FC Gss (1448273_PM_at): 1.67
  FC Gsta2 (1421040_PM_a_at): 3.82
  FC Gsta3 (1423436_PM_at): 3.23
  FC Gsta3 (1423437_PM_at): 4.03
  FC Gstm1 (1416416_PM_x_at): 2.30
  FC Gstm1 (1425627_PM_x_at): 2.57
  FC Gstm1 (1448330_PM_at): 2.47
  FC Gstm3 (1427473_PM_at): 2.37
  FC Gstm3 (1427474_PM_s_at): 1.56
  FC LOC100504040 (1457279_PM_at): 2.18
  FC Mafg (1448916_PM_at): 2.20
  FC Nqo1 (1423627_PM_at): 2.16
  FC Osgin1 (1424022_PM_at): 2.08
  FC Prss8 (1418320_PM_at): 2.60
  FC Ptk6 (1442923_PM_at): −2.42
  FC Setd4 (1425239_PM_at): 2.09
  FC Setd4 (1435405_PM_at): 1.91
  FC Setd4 (1460373_PM_a_at): 1.91
  FC Slc35e3 (1428805_PM_at): 1.53
  FC Slc40a1 (1417061_PM_at): 2.33
  FC Srr (1453421_PM_at): 1.99
  FC Srxn1 (1425351_PM_at): 1.71
  FC Tifa (1426501_PM_a_at): −2.43
